Values quoted from earlier work as cited in article PMC8541945 (Investigational New Drugs, 2021).

Columns and labels:
[1] = test system: brain metastases secondary to HR + /HER2- metastatic BC; design: method as in earlier work
patients [2] = test system: patients; design: method as in PMID 28580882, PMID 28968163
[3] = test system: heavily pretreated patients, HR + /HER2- advanced BC; design: method as in PMID 28533223; details: abemaciclib alone, 132 heavily pretreated patients
patients [4] = details: single agent, phase 1 trials
[5] = test system: patients in the ribociclib group
[6] = following multiple doses, 600-mg dose group

Grade 3/4 neutropenia (patients [2]) [%] | Cmax, geometric mean [range] [6] | SMILES | Confirmed objective intracranial response [1] [%] | Intracranial clinical benefit rate (CR + PR + SD persisting for ≥ 6 months) [1] [%] | Patients with a decrease in the sum of intracranial target lesions [1] [%] | CBR [3] [%] | Confirmed ORR [3] [%] | Median OS [3] [months] | Median PFS [3] [months] | Patients who experienced SD (patients [4]) | Patients with dose interruptions or dose reductions due to QTcF increase ([5]; 13 patients) [%] | Patients with increase of more than 60 ms from baseline in the QTcF interval ([5]; 32 of 335 patients in the ribociclib group) [%]
21.1 | – | CCN1CCN(Cc2ccc(Nc3ncc(F)c(-c4cc(F)c5nc(C)n(C(C)C)c5c4)n3)nc2)CC1 [abemaciclib] | 6 | 25 | 38 | 42.4 | 19.7 | 17.7 | 6.0 | – | – | –
– | – | CC(=O)c1c(C)c2cnc(Nc3ccc(N4CCNCC4)cn3)nc2n(C2CCCC2)c1=O [palbociclib] | – | – | – | – | – | – | – | approximately 30% | – | –
– | 1940 [range, 859–5860] ng/ml | CN(C)C(=O)c1cc2cnc(Nc3ccc(N4CCNCC4)cn3)nc2n1C1CCCC1 [ribociclib] | – | – | – | – | – | – | – | approximately 30% | 4 | 10
